In patent US20100068208A1, “Degranulation inhibitor” (priority 2005, published 2010):

Experiments:
[1] = test system: human mast cell line LAD 2; assay: Expression of TNF-α, CCL-2 or CCL-5 mRNA in LAD 2 (TaqMan PCR); format: cell-based; conditions: various TGR12 ligands experiment, 1 μM, two hours after stimulation
Method: Human mast cell line LAD 2 was cultured in StemPro-34 medium (Invitrogen) supplemented with 100 ng/mL of stem cell factor (Immuno-Biological Laboratories Co., Ltd.). […] A 750 μL aliquot was inoculated on a 24-well plate, which was then allowed to stand in a CO2 incubator at 37° C. for 30 minutes. […] The assay was performed for the respective reaction conditions in n=3. The plate was ice-chilled 0.5, 2, 8 and 24 hours after to stop the activation of LAD 2. After centrifugation at 300×g for 5 minutes, total RNA was extracted from the precipitated cells using RNeasy Mini Kit (Qiagen) according to the protocol attached. Further in the experiments where expression levels upon stimulation by various TGR12 ligands were analyzed, LAD 2 was centrifuged at 300×g for 5 minutes and the cells precipitated were counted and suspended in the medium at 1.33×10^6 cells/mL. A 750 μL aliquot was inoculated on a 24-well plate, which was allowed to stand in a CO2 incubator at 37° C. for 30 minutes. […] The assay was performed for the respective reaction conditions in n=3. Two hours after, the plate was ice-chilled to stop the activation of LAD 2. After centrifugation at 300×g for 5 minutes, total RNA was extracted from the precipitated cells using RNeasy Mini Kit (Qiagen) according to the protocol attached. The total RNA obtained as described above was concentrated using ethachinmate according to the protocol attached and dissolved in RNase-free H2O, Next, using the solution corresponding to […] of total RNA, reverse transcription was performed by the following procedure using SuperScript II reverse transcriptase (Invitrogen) to synthesize single stranded cDNA. To the total RNA solution, 0.1 μg of random primer (Invitrogen) and 1 μL of 10 mM dNTP (Invitrogen) were added and then RNase-free H2O was added to make the whole volume 12 μL. The mixture was then incubated at 70° C. for 10 minutes and ice-cooled for a minute. After 4 μL of 5× First-Strand Buffer (attached to SuperScript II reverse transcriptase), 2 μL of 0.1M DTT (attached to SuperScript II reverse transcriptase), 1 μL of RNaseOUT (Invitrogen) and 1 μL of SuperScript II reverse transcriptase were added, the mixture was incubated at 42° C. for 50 minutes, then at 70° C. for 15 minutes and ice-cooled for 5 minutes. The thus obtained cDNA was purified using ethachinmate in accordance with the protocol attached and dissolved in Tris-EDTA buffer (Fluka).
In TaqMan PCR below, hTNFalpha-tF (SEQ ID NO: 33) and hTNFalpha-tR (SEQ ID NO: 34) were used as primers for human TNF-α quantification, hTNFalpha-tP (SEQ ID NO: 35) as a probe and hTNFalpha-standard (SEQ ID NO: 36) as a standard. For human CCL-5 quantification, hCCL5-tF (SEQ ID NO: 37) and hCCL5-tR (SEQ ID NO: 38) were used as primers, hCCL5-tP (SEQ ID NO: 39) as a probe and hCCL5 standard (SEQ ID NO: 40) as a standard. For human CCL-2 quantification, hCCL2-tF (SEQ ID NO: 41) and hCCL2-tR (SEQ ID NO: 42) were used as primers, hCCL2-tP (SEQ ID NO: 43) as a probe and hCCL2 standard (SEQ ID NO: 44) as a standard.
TaqMan PCR was performed in n=2 for each sample in a liquid volume of 15 μl using 12.5 ng of total RNA as a template. The reaction solution was composed of 900 nM primer, 250 nM probe and ½ volume of TaqMan Universal PCR Master Mix (Applied Biosystems). The reaction and analysis were performed by ABI PRISM 7900HT Sequence Detection System (Applied Biosystems). After keeping warm at 50° C. for 2 minutes and then at 95° C. for 10 minutes, the reaction cycle was set in one cycle to include 95° C. for 15 seconds and 60° C. for 1 minute and repeating the cycle 40 times.

RBL-2H3 = assay: Intracellular calcium increasing activity in RBL2H3 (FLIPR); format: cell-based; parameters: unit not given here
Method: RBL-2H3 (hereinafter RBL2H3) was incubated in α-MEM (Invitrogen) supplemented with 10% fetal calf serum. Vector plasmid pcDNA3.1 for animal cell expression, in which the nucleotide sequence containing the initiation codon to the termination codon of human TGR12 (DNA having the nucleotide sequence represented by SEQ ID NO: 32) was incorporated, was stably expressed in RBL-2H3 to establish human TGR12-expressed RBL-2H3 cell line (hereinafter RBL2H3-TGR12). RBL2H3-TGR12 was incubated in α-MEM (Invitrogen) supplemented with 10% fetal calf serum and 200 μg/mL of Geneticin.
The intracellular calcium increasing activity was assayed as follows. RBL2H3 and RBL2H3-TGR12 were plated in a 96-well plate at a density of 40,000 cells/well and incubated overnight. The medium was then discarded and 100 μL/well of 4 μM Fluo3-AM (Dojin Kagaku)-containing assay buffer [Hank's Balanced Salt Solution (Invitrogen), 20 mM HEPES (Dojin Kagaku) and 2.5 mM Probenecid (Sigma)] was added. The mixture was allowed to stand for an hour at 37° C. Various TGR12 (Peptide Institute, Inc.) or calcium ionophore A23187 (Wako Pure Chemical) was diluted in 0.05% CHAPS-containing assay buffer. After the cells were washed with the assay buffer, fluorescence emitted with changes in intracellular calcium was measured using FLIPR (Molecular Device). A sample, 50 μL, was added at a rate of 50 μL/sec. 10 seconds after initiation of the assay. Fluorescence was measured every 1 second during the first 60 seconds and every 6 seconds during the next 120 seconds. The highest fluorescence intensity during 3 minutes was made the maximum activity under the stimulation conditions, which was taken as an average of 3 wells. The EC50 values were calculated using Graphpad PRISM 4 (Graphpad Software).

SMILES	expression level of CCL-2 in LAD 2 [1] [copies]	expression level of CCL-5 in LAD 2 [1] [copies]	expression level of TNF-α in LAD 2 [1] [copies]	maximum activity in the calcium increasing effect (RBL-2H3; RBL2H3, 1 nM)	maximum activity in the calcium increasing effect (RBL-2H3; RBL2H3, 10 nM)	maximum activity in the calcium increasing effect (RBL-2H3; RBL2H3, 100 nM)	maximum activity in the calcium increasing effect (RBL-2H3; RBL2H3, 1 μM)	maximum activity in the calcium increasing effect (RBL-2H3; RBL2H3, 10 μM)
CC(C)C[C@H](NC(=O)[C@H](C)NC(=O)[C@H](Cc1c[nH]c2ccccc12)NC(=O)[C@H](CCCCN)NC(=O)[C@H](CC(N)=O)NC(=O)[C@H](Cc1c[nH]c2ccccc12)NC(=O)[C@H](CCCCN)NC(=O)[C@H](CCCCN)NC(=O)[C@H](CCCNC(=N)N)NC(=O)[C@@H](N)Cc1ccccc1)C(=O)N[C@@H](CO)C(=O)N[C@@H](CCCNC(=N)N)C(N)=O [PAMP-12, proadrenomedullin N-terminal 20 peptide (9-20)]	1143248	34566	8918	52	52	35	44	43
CC[C@H](C)[C@H](NC(=O)CNC(=O)[C@H](CC(=O)O)NC(=O)[C@H](CO)NC(=O)[C@@H](N)Cc1c[nH]cn1)C(=O)N[C@@H](Cc1ccccc1)C(=O)N[C@H](C(=O)N[C@@H](CC(=O)O)C(=O)N[C@@H](CO)C(=O)N[C@@H](Cc1ccc(O)cc1)C(=O)N[C@@H](CO)C(=O)N[C@@H](CCCNC(=N)N)C(=O)N[C@@H](Cc1ccc(O)cc1)C(=O)N[C@@H](CCCNC(=N)N)C(=O)N[C@@H](CCCCN)C(=O)N[C@@H](CCC(N)=O)C(=O)N[C@@H](CCSC)C(=O)N[C@@H](C)C(=O)N[C@H](C(=O)N[C@@H](CCCCN)C(=O)N[C@@H](CCCCN)C(=O)N[C@@H](Cc1ccc(O)cc1)C(=O)N[C@@H](CC(C)C)C(=O)N[C@@H](C)C(=O)N[C@@H](C)C(=O)N[C@H](C(=O)N[C@@H](CC(C)C)C(N)=O)C(C)C)C(C)C)[C@@H](C)O [PACAP-27]	3809873	48242	219597	47	37	63	59	45
CC[C@H](C)[C@H](NC(=O)[C@H](CO)NC(=O)[C@H](CC(N)=O)NC(=O)[C@H](CC(C)C)NC(=O)[C@H](Cc1ccc(O)cc1)NC(=O)[C@H](CCCCN)NC(=O)[C@H](CCCCN)NC(=O)[C@@H](NC(=O)[C@H](C)NC(=O)[C@H](CCSC)NC(=O)[C@H](CCC(N)=O)NC(=O)[C@H](CCCCN)NC(=O)[C@H](CCCNC(=N)N)NC(=O)[C@H](CC(C)C)NC(=O)[C@H](CCCNC(=N)N)NC(=O)[C@@H](NC(=O)[C@H](Cc1ccc(O)cc1)NC(=O)[C@H](CC(N)=O)NC(=O)[C@H](CC(=O)O)NC(=O)[C@@H](NC(=O)[C@H](Cc1ccccc1)NC(=O)[C@@H](NC(=O)[C@H](C)NC(=O)[C@H](CC(=O)O)NC(=O)[C@H](CO)NC(=O)[C@@H](N)Cc1c[nH]cn1)C(C)C)[C@@H](C)O)[C@@H](C)O)C(C)C)C(=O)N[C@@H](CC(C)C)C(=O)N[C@@H](CC(N)=O)C(N)=O [VIP, vasoactive intestinal polypeptide]	3630286	45015	176630	–	–	–	–	–
CSCC[C@H](NC(=O)[C@H](CCCNC(=N)N)NC(=O)[C@@H](N)CC(=O)O)C(=O)N1CCC[C@H]1C(=O)N[C@H]1CSSC[C@@H](C(=O)N[C@@H](CCCCN)C(=O)O)NC(=O)[C@H](CO)NC(=O)[C@H](CO)NC(=O)[C@H](Cc2ccccc2)NC(=O)[C@H]([C@@H](C)O)NC(=O)[C@H](CCCCN)NC(=O)[C@H](Cc2c[nH]c3ccccc23)NC(=O)[C@H](Cc2ccccc2)NC(=O)[C@H](Cc2ccccc2)NC(=O)[C@H](CC(N)=O)NC(=O)[C@H](CCCNC(=N)N)NC1=O [cortistatin-17]	2944622	47322	163551	67	78	54	49	52
